Measured values: PMC11648681, “Development of machine learning models for the prediction of the skin sensitization potential of cosmetic compounds” (PeerJ, 2024)
Values joined by “and” are separate entries in the source; they are usually repeats but may differ in a detail not shown here. Identical values can stand only once. Like-named read-outs stand apart in the source and are kept apart here.

Experiments:
[1] = CCK-8 cell viability of THP-1 cells after 48 h compound treatment in HaCaT/THP-1 co-culture; format: cell-based, human; conditions: human
Experimental: (§1) The co-culture system was set up according to the following described method. […] THP-1 cells were collected, centrifuged, and re-suspended in fresh RPMI-1640 medium supplemented with 10% FBS at 2 × 10^6 cells/mL. Then cells are distributed into HaCaT-seeded 96 wells plate with 80 μL (1.6 × 10^5 cells/well).
(§2) The compounds listed in Table 1 were dissolved in DMSO to create stock solutions with a concentration of 500 mg/mL. Eleven concentrations were subsequently prepared using two-fold serial dilutions. These stock solutions were then further diluted 250-fold in RPMI-1640 + 10% FBS medium. Finally, 80 μL of the prepared solutions were added 1:1 to the treated 96-well plates and incubated for 48 h at 37 °C and 5% CO2.
(§3) After 48 h of treatment, the treated cells were collected 100 μL cells per well. The supernatant medium was added 10 μL of CCK-8 (Life-iLab, Shanghai, China) solution to each well and incubated the plate in the incubator for 2–4 h. THP-1 cell viability was determined using standard calculation methods.
(§4) The cytotoxicity of 15 test compounds listed in Table 1 was assessed using THP-1 cells across a concentration range of 1,000 to 3.9 μg/mL. Cell viability was assessed after 48 h of treatment using the CCK-8 assay.

[2] = test system: THP-1 cells; experiment: as above; format: cell-based, human; conditions: for Cell viability / final concentration used (highest concentration that maintained at least 80% cell viability): 48 h; for IC50 (cytotoxicity) / final concentration used (highest concentration that maintained at least 80% cell viability): THP-1 cells; for IC50 (cytotoxicity): 48 h treatment, CCK-8, range 1,000 to 3.9 μg/mL; for final concentration used (highest concentration that maintained at least 80% cell viability): CCK-8, single (not double) concentration
Experimental: as §1, §2, §3, §4

[3] = THP-1 cells in co-culture with HaCaT cells, 48 h, THP-1, individual replicate values
[4] = 0.976563 μg/mL, THP-1, individual replicate values
[5] = 1.95312 μg/mL, THP-1, individual replicate values
[6] = 3.90625 μg/mL, THP-1, individual replicate values
[7] = 7.8125 μg/mL, THP-1, individual replicate values
[8] = 15.625 μg/mL, THP-1, individual replicate values
[9] = 62.5 μg/mL, THP-1, individual replicate values
[10] = 125 μg/mL, THP-1, individual replicate values
[11] = 250 μg/mL, THP-1, individual replicate values
[12] = 500 μg/mL, THP-1, individual replicate values
[13] = 1000 μg/mL, THP-1, individual replicate values
[14] = 48 h, THP-1, individual replicate values
[15] = 31.25 μg/mL, THP-1, individual replicate values

| SMILES | viability at 48 h, 31.25 μg/mL ([1]; Cell viability) | viability at 48 h, 0.976563 μg/mL [1, 3] | viability at 48 h, 1.95312 μg/mL [1, 3] | viability at 48 h, 3.90625 μg/mL [1, 3] | viability at 48 h, 7.8125 μg/mL [1, 3] | viability at 48 h, 15.625 μg/mL [1, 3] | viability at 48 h, 62.5 μg/mL [1, 3] | viability at 48 h, 125 μg/mL [1, 3] | viability at 48 h, 250 μg/mL [1, 3] | viability at 48 h, 500 μg/mL [1, 3] | Cell viability [2, 4] | Cell viability [2, 5] | Cell viability [2, 6] | Cell viability [2, 7] | Cell viability [2, 8] | Cell viability [2, 9] | Cell viability [2, 10] | Cell viability [2, 11] | Cell viability [2, 12] | Cell viability [2, 13] | other results |
| --- | --- | --- | --- | --- | --- | --- | --- | --- | --- | --- | --- | --- | --- | --- | --- | --- | --- | --- | --- | --- | --- |
| Sc1nc2ccccc2s1 [2-mercaptobenzothiazole] | 63.3% | 80.2% | 76.6% | 77.2% | 65.9% | 63.3% | 61.4% | 34.2% | 24.8% | 20.8% | 93.5695% | 85.722% | 80.7937% | 76.7668% | 73.0224% | 73.444% | 34.9417% | 27.3318% | 20.0359% | 12.1659% | viability at 48 h, 1000 μg/mL [1, 3]: 12.9%; Cell viability ([2]; human, 31.25 μg/mL): 70.7399% |
| C[S+](C)[O-] [DMSO, Dimethyl sulfoxide] | – | – | – | – | – | – | – | – | – | – | 104.048% and 100.267% | 96% and 94.5143% | 96.1619% and 89.1238% | – | – | – | – | – | 86.8476% and 87.3143% | 91.9905% and 89.9048% | IC50 (cytotoxicity) [2]: greater than 1,000 μg/mL |
| O=[N+]([O-])c1ccc(Cl)c([N+](=O)[O-])c1 [DNCB, 2,4-dinitrochlorobenzene] | – | – | – | – | – | – | – | – | – | – | 95.0987% | 97.1973% | 71.1839% | 7.332% | 7.211% | 9.193% | 8.767% | 9.112% | 10.9865% | 11.5516% | viability at 48 h, 0.976563 μg/mL [1, 14]: 102%; viability at 48 h, 1.95312 μg/mL [1, 14]: 88.2%; viability at 48 h, 3.90625 μg/mL [1, 14]: 75.9%; viability at 48 h, 7.8125 μg/mL [1, 14]: 6.82%; viability at 48 h, 15.625 μg/mL [1, 14]: 6.91%; viability at 48 h, 31.25 μg/mL ([1]; 31.25 μg/mL, 48 h, THP-1, individual replicate values, read-out: Cell viability): 7.1%; viability at 48 h, 62.5 μg/mL [1, 14]: 7.52%; viability at 48 h, 125 μg/mL [1, 14]: 8.76%; viability at 48 h, 250 μg/mL [1, 14]: 11%; viability at 48 h, 500 μg/mL [1, 14]: 13.4%; viability at 48 h, 1000 μg/mL [1, 14]: 19.9%; Cell viability [2, 15]: 7.274% |
| CC(C)O [IPA, Isopropanol] | – | – | – | – | – | – | – | – | – | – | 106.609% and 97.981% | 97.8095% and 92.5429% | 90.3238% and 89.219% | 92.0495% and 89.6476% | 92.1791% and 88.8381% | 91.3838% and 93% | 92.3943% and 110.771% | 91.0095% and 92.9524% | 91.6191% and 88.9333% | 96.9905% and 96.3619% | Cell viability [2, 15]: 92.0943% and 92.7371%; IC50 (cytotoxicity) [2]: greater than 1,000 μg/mL |
| CCCCCCCCCCCCOS(=O)(=O)[O-].[Na+] [SDS, Sodium dodecyl sulfate] | – | – | – | – | – | – | – | – | – | – | 99.2381% and 110.076% | 92.6381% and 90.6381% | 73.0476% and 93.5333% | 90.7238% and 93.3905% | 95.4381% and 98.4286% | 37.0381% and 32.0952% | 15.5905% and 18.1809% | 15.9333% and 15.6381% | 15.1524% and 16.781% | 14.1809% and 14.2952% | Cell viability [2, 15]: 85.9333% and 91.0762%; final concentration used (highest concentration that maintained at least 80% cell viability) [2]: 31.25 µg/mL |
| CC(C)(C)c1cc(O)ccc1O [THBQ, Tert-butylhydroquinone] | 103% | 95.9% | 94.8% | 97.4% | 117% | 104% | 47.1% | 29.9% | 26.6% | 18.8% | 94.8298% | 95.9362% | 101.759% | 103.546% | 101.22% | 47.234% | 34.2837% | 20.1277% | 18.8014% | 15.3191% | viability at 48 h, 1000 μg/mL [1, 3]: 15.2%; final concentration used (highest concentration that maintained at least 80% cell viability) [2]: 31.25 µg/mL; Cell viability ([2]; human, 31.25 μg/mL): 104.716% |
| N#CCCC(Br)(C#N)CBr (centres unmarked) [bromoml, 1,2-dibromo-2,4-dicyanobutane] | 12% | 97% | 97.1% | 100% | 53.3% | 13.3% | 12.2% | 12.2% | 11.9% | 12.9% | 102.88% | 103.993% | 108.767% | 57.1729% | 14.391% | 11.8195% | 12.0752% | – | 12.3985% | 12.3609% | viability at 48 h, 1000 μg/mL [1, 3]: 12.4%; final concentration used (highest concentration that maintained at least 80% cell viability) [2]: 3.9 µg/mL; Cell viability ([2]; human, 31.25 μg/mL): 11.782% |
